ChEMBL document CHEMBL1201862, “PubChem BioAssay data set” (2004)
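A five-concentration, 48-hour dose response in 96-well plates underlies each endpoint, interpolated linearly between surrounding concentrations. The concentration for 50% growth inhibition is given as GI50.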 The source made the active and inactive calls. Cut-off read from the data, not from the text of the source: active = GI50 up to about 1.1 µM and inactive = higher.

What was measured:
Experiment in all cases: growth of human tumour cells (NCI), 48 h
HT-29 = system: HT-29
SK-MEL-5 = system: SK-MEL-5
OVCAR-8 = system: OVCAR-8
OVCAR-4 = system: OVCAR-4
BT-549 = system: BT-549
PC-3 = system: PC-3
UO-31 = system: UO-31
CAKI-1 = system: CAKI-1
HCC 2998 = system: HCC 2998
OVCAR-5 = system: OVCAR-5
RXF 393 = system: RXF 393
SN12C = system: SN12C
KM12 = system: KM12
SK-MEL-28 = system: SK-MEL-28
K562 = system: K562
786-0 = system: 786-0
LOX IMVI = system: LOX IMVI
Hs-578T = system: Hs-578T
HOP-92 = system: HOP-92
HOP-62 = system: HOP-62
EKVX = system: EKVX
NCI-H226 = system: NCI-H226
OVCAR-3 = system: OVCAR-3
NCI-H522 = system: NCI-H522
RPMI-8226 = system: RPMI-8226
Malme-3M = system: Malme-3M
M14 = system: M14
NCI/ADR-RES = system: NCI/ADR-RES
NCI-H23 = system: NCI-H23
SF-295 = system: SF-295
SF-539 = system: SF-539
MDA-MB-435 = system: MDA-MB-435
A498 = system: A498
HL-60 = system: HL-60
HCT-116 = system: HCT-116
SK-MEL-2 = system: SK-MEL-2
HCT-15 = system: HCT-15
IGROV-1 = system: IGROV-1
ACHN = system: ACHN
COLO 205 = system: COLO 205
MDA-MB-231 = system: MDA-MB-231
SW-620 = system: SW-620
T47D = system: T47D
SF-268 = system: SF-268
SNB-75 = system: SNB-75
MOLT-4 = system: MOLT-4
SR = system: SR
U-251 = system: U-251
SNB-19 = system: SNB-19
UACC-257 = system: UACC-257
SK-OV-3 = system: SK-OV-3
TK-10 = system: TK-10
CCRF-CEM = system: CCRF-CEM
UACC-62 = system: UACC-62
MDA-N = system: MDA-N
A549 = system: A549
NCI-H460 = system: NCI-H460
DU-145 = system: DU-145
MCF7 = system: MCF7

O=C(O)c1nc(-c2ccccn2)c(-c2ccccn2)nc1C(=O)O
GI50 (HT-29): 2.7 µM (inactive) | GI50 (SK-MEL-5): 1.28 µM (inactive) | GI50 (OVCAR-8): 3.44 µM (inactive) | GI50 (OVCAR-4): 2 µM (inactive) | GI50 (BT-549): 4.01 µM (inactive) | GI50 (PC-3): 4.47 µM (inactive) | GI50 (UO-31): 1.64 µM (inactive) | GI50 (CAKI-1): 2.92 µM (inactive) | GI50 (HCC 2998): 0.773 µM (active) | GI50 (OVCAR-5): 3.01 µM (inactive) | GI50 (RXF 393): 2.31 µM (inactive) | GI50 (SN12C): 3.27 µM (inactive) | GI50 (KM12): 2.75 µM (inactive) | GI50 (SK-MEL-28): 1.2 µM (inactive) | GI50 (K562): 3.66 µM (inactive) | GI50 (786-0): 2.61 µM (inactive) | GI50 (LOX IMVI): 2.07 µM (inactive) | GI50 (Hs-578T): 19.1 µM (inactive) | GI50 (HOP-92): 9.51 µM (inactive) | GI50 (HOP-62): 2.15 µM (inactive) | GI50 (EKVX): 1.88 µM (inactive) | GI50 (NCI-H226): 1.7 µM (inactive) | GI50 (OVCAR-3): 2.87 µM (inactive) | GI50 (NCI-H522): 4.28 µM (inactive) | GI50 (RPMI-8226): 2.86 µM (inactive) | GI50 (Malme-3M): 1.66 µM (inactive) | GI50 (M14): 1.42 µM (inactive) | GI50 (NCI/ADR-RES): 2.75 µM (inactive) | GI50 (NCI-H23): 5.3 µM (inactive) | GI50 (SF-295): 2.49 µM (inactive) | GI50 (SF-539): 3.38 µM (inactive) | GI50 (MDA-MB-435): 3.62 µM (inactive) | GI50 (A498): 1.61 µM (inactive) | GI50 (HL-60): 2.25 µM (inactive) | GI50 (HCT-116): 1.67 µM (inactive) | GI50 (SK-MEL-2): 4.95 µM (inactive) | GI50 (HCT-15): 0.384 µM | GI50 (IGROV-1): 3.5 µM (inactive) | GI50 (ACHN): 0.678 µM (active) | GI50 (COLO 205): 2.47 µM (inactive) | GI50 (MDA-MB-231): 9.82 µM (inactive) | GI50 (SW-620): 3.26 µM (inactive) | GI50 (T47D): 5.19 µM (inactive) | GI50 (SF-268): 3.31 µM (inactive) | GI50 (SNB-75): 3.49 µM (inactive) | GI50 (MOLT-4): 2.3 µM (inactive) | GI50 (SR): 2.03 µM (inactive) | GI50 (U-251): 1.77 µM (inactive) | GI50 (SNB-19): 5.04 µM (inactive) | GI50 (UACC-257): 4.35 µM (inactive) | GI50 (SK-OV-3): 3.77 µM (inactive) | GI50 (TK-10): 3.48 µM (inactive) | GI50 (CCRF-CEM): 2.44 µM (inactive) | GI50 (UACC-62): 2.1 µM (inactive) | GI50 (MDA-N): 2.2 µM (inactive) | GI50 (A549): 1.12 µM (inactive) | GI50 (NCI-H460): 0.719 µM (active) | GI50 (DU-145): 2.47 µM (inactive)

C/C(CC(O)(/C=N/O)c1ccccc1)=N/O (stereo unspecified)
GI50 (HT-29): > 100 µM (inactive) | GI50 (SK-MEL-5): > 100 µM (inactive) | GI50 (OVCAR-8): > 100 µM (inactive) | GI50 (OVCAR-4): > 100 µM (inactive) | GI50 (BT-549): > 100 µM (inactive) | GI50 (PC-3): > 100 µM (inactive) | GI50 (UO-31): > 100 µM (inactive) | GI50 (CAKI-1): > 100 µM (inactive) | GI50 (HCC 2998): > 100 µM (inactive) | GI50 (OVCAR-5): > 100 µM (inactive) | GI50 (SN12C): > 100 µM (inactive) | GI50 (KM12): > 100 µM (inactive) | GI50 (SK-MEL-28): > 100 µM (inactive) | GI50 (K562): > 100 µM (inactive) | GI50 (786-0): > 100 µM (inactive) | GI50 (LOX IMVI): > 100 µM (inactive) | GI50 (Hs-578T): > 100 µM (inactive) | GI50 (HOP-62): > 100 µM (inactive) | GI50 (EKVX): > 100 µM (inactive) | GI50 (NCI-H226): > 100 µM (inactive) | GI50 (OVCAR-3): > 100 µM (inactive) | GI50 (NCI-H522): > 100 µM (inactive) | GI50 (RPMI-8226): > 100 µM (inactive) | GI50 (Malme-3M): > 100 µM (inactive) | GI50 (MCF7): > 100 µM (inactive) | GI50 (M14): > 100 µM (inactive) | GI50 (NCI/ADR-RES): 99.8 µM (inactive) | GI50 (NCI-H23): > 100 µM (inactive) | GI50 (SF-295): > 100 µM (inactive) | GI50 (SF-539): > 100 µM (inactive) | GI50 (MDA-MB-435): > 100 µM (inactive) | GI50 (HCT-116): > 100 µM (inactive) | GI50 (SK-MEL-2): > 100 µM (inactive) | GI50 (HCT-15): > 100 µM | GI50 (IGROV-1): > 100 µM (inactive) | GI50 (ACHN): > 100 µM (inactive) | GI50 (MDA-MB-231): > 100 µM (inactive) | GI50 (SW-620): > 100 µM (inactive) | GI50 (T47D): > 100 µM (inactive) | GI50 (SF-268): > 100 µM (inactive) | GI50 (MOLT-4): > 100 µM (inactive) | GI50 (SR): > 100 µM (inactive) | GI50 (U-251): > 100 µM (inactive) | GI50 (SNB-19): > 100 µM (inactive) | GI50 (UACC-257): > 100 µM (inactive) | GI50 (SK-OV-3): > 100 µM (inactive) | GI50 (TK-10): > 100 µM (inactive) | GI50 (CCRF-CEM): > 100 µM (inactive) | GI50 (MDA-N): > 100 µM (inactive) | GI50 (A549): > 100 µM (inactive) | GI50 (NCI-H460): > 100 µM (inactive)

CC(C)=CC1C(COC(=O)c2ccccc2Cl)C1(C)C (stereo unspecified)
GI50 (HT-29): 29.6 µM (inactive) | GI50 (SK-MEL-5): 24 µM (inactive) | GI50 (OVCAR-8): 53.1 µM (inactive) | GI50 (OVCAR-4): 42.2 µM (inactive) | GI50 (BT-549): 33.5 µM (inactive) | GI50 (PC-3): 41.3 µM (inactive) | GI50 (UO-31): 78.5 µM (inactive) | GI50 (CAKI-1): 41.6 µM (inactive) | GI50 (OVCAR-5): 38.3 µM (inactive) | GI50 (RXF 393): 24.9 µM (inactive) | GI50 (SN12C): 32.6 µM (inactive) | GI50 (KM12): 30.4 µM (inactive) | GI50 (SK-MEL-28): > 100 µM (inactive) | GI50 (K562): 34 µM (inactive) | GI50 (786-0): 33.2 µM (inactive) | GI50 (LOX IMVI): 20.2 µM (inactive) | GI50 (Hs-578T): 19 µM (inactive) | GI50 (HOP-92): 28.4 µM (inactive) | GI50 (HOP-62): 38.4 µM (inactive) | GI50 (EKVX): 25.8 µM (inactive) | GI50 (NCI-H226): 30.4 µM (inactive) | GI50 (OVCAR-3): 26.1 µM (inactive) | GI50 (NCI-H522): 20.4 µM (inactive) | GI50 (Malme-3M): 23 µM (inactive) | GI50 (M14): 75 µM (inactive) | GI50 (NCI/ADR-RES): 41.2 µM (inactive) | GI50 (NCI-H23): 31.8 µM (inactive) | GI50 (SF-295): 35.5 µM (inactive) | GI50 (MDA-MB-435): 85.1 µM (inactive) | GI50 (A498): > 100 µM (inactive) | GI50 (HL-60): 24.1 µM (inactive) | GI50 (HCT-116): 49.3 µM (inactive) | GI50 (SK-MEL-2): 46.7 µM (inactive) | GI50 (HCT-15): 25.6 µM | GI50 (IGROV-1): 23.5 µM (inactive) | GI50 (ACHN): 42.8 µM (inactive) | GI50 (MDA-MB-231): 49.7 µM (inactive) | GI50 (SW-620): 51.3 µM (inactive) | GI50 (T47D): 50.6 µM (inactive) | GI50 (SF-268): 27.5 µM (inactive) | GI50 (MOLT-4): 24.3 µM (inactive) | GI50 (SR): 42.2 µM (inactive) | GI50 (U-251): 30.1 µM (inactive) | GI50 (SNB-19): > 100 µM (inactive) | GI50 (UACC-257): 48.9 µM (inactive) | GI50 (TK-10): > 100 µM (inactive) | GI50 (CCRF-CEM): 56.8 µM (inactive) | GI50 (UACC-62): > 100 µM (inactive) | GI50 (MDA-N): 29.6 µM (inactive) | GI50 (A549): 36.9 µM (inactive) | GI50 (NCI-H460): 35.7 µM (inactive) | GI50 (DU-145): 32.8 µM (inactive)
